Measurements taken from patent US10106577B2, “Agonists of neurotrophin receptors and their use as medicaments” (BIONURE FARMA, S.L., priority 2010, dated 2018).

Tests used:
PC12 cells [1] = assay: Signalling inhibition assays (PC12 differentiation with LY294002 or PD98059); format: cell-based
Method: To evaluate if the transduction pathway induced by G79, G80, and G81 involves AKT and ERK activation, PC12 cell were treated with the test compounds in the presence of LY294002, an inhibitor of PI3K (an upstream activator of AKT) and PD98059, an inhibitor of MAPK kinase (an upstream activator of ERK). For this purpose, PC12 cells were plated into collagen-coated 24-wells plates with 2.5% FBS and after 72 hrs the cells were treated with the small molecules in combination with LY294002 (Sigma Aldrich, 10 μM) or PD98059 (Sigma Aldrich, 50 μM). NGF (100 ng/ml) was used as control and added alone or in combination with the inhibitors.

PC12 cells [2] = assay: Synergistic activity assay (PC12 differentiation in combination with NGF); format: cell-based; settings: 100 ng/ml in combination with NGF 100 ng/ml
Method: To evaluate if the small molecules G79, G80, and G81 interfere with the maximal activity of NGF or lead to additive effects, PC12 cells were plated into collagen-coated 24-wells plates with 2.5% FBS and treated after 72 h with the small chemicals (each one at 100 ng/ml) in combination with NGF at the concentration of 100 ng/ml. In the same experiment PC12 cells were treated with the small molecules or NGF alone, as controls. The number of differentiated cells was evaluated after three days of treatment. The cell count was done in three randomly selected fields with 100 cells.

PC12 cells [3] = assay: Secretagogue activity assay (PC12 differentiation with antibody anti-NGF); format: cell-based
Method: To assess if the tested compounds, G79, G80, and G81, act as secretagogues, inducing neurotrophic activity through the synthesis of NGF, PC12 cells were plated into collagen-coated 24-wells plates with only 2.5% FBS and after 72 hrs the cells were treated with the tested compounds (each one at 100 ng/ml) together with antibody anti-NGF (1 μg/ml, AbCam). After three days of treatment, the differentiation was evaluated. The cell count was done in three randomly selected fields with 100 cells.

p75 receptor = biological target: T1, p75 receptor (Rattus norvegicus, UniProt P07174); assay: Cytometry binding assay in PC12 with anti-TrkA antibody; settings: cells pre-incubated with anti-TrkA antibody; growing NGF
T1 construct: PC12 cells expressing both TrkA and p75 receptors were cultivated in normal growth medium; endogenous in cells; host or cells: PC12
T1 sequence (P07174 30-425): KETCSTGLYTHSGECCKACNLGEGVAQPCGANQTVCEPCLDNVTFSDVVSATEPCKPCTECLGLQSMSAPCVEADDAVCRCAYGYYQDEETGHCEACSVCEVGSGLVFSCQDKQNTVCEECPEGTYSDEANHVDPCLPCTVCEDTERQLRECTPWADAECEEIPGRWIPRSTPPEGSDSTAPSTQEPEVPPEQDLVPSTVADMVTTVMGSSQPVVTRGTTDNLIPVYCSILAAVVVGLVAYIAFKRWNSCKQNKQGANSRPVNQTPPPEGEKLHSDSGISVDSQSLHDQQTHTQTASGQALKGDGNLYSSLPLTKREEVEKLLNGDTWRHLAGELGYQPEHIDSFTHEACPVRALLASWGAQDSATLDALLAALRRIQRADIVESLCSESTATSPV
Method: (§1) In order to assess the binding of G79 to the TrkA (PC12 cells) and TrkB receptors (SH-SY5Y), we performed competitive binding assays by flow cytometry. In order to assess the binding competition between p75 and TrkA, PC12 cells expressing both TrkA and p75 receptors were cultivated in normal growth medium. After detaching cells by trypsin solution, 200,000 cells/well were added to tubes for the following incubations. One tube contains control untreated cells. In the other tubes, cells were pre-incubated for 45 minutes with different concentrations of NGF (0-10-20-50-100 ng/ml), that can directly bind both TrkA and p75 receptors, blocking the possible binding of G79 if it competes for the same receptors. Then, without washing the cells, G79 conjugated with FITC fluorescence (100 ng/ml) was added and so incubated the cells for 1 hour. Samples were read in a cytometer (FCAScan).
(§2) To detect the binding separately on both receptors, a prior incubation of cells (before NGF incubation) with blocking antibodies was made. The cells were preincubated for 1 hour with blocking antibody anti-p75 (1:100; Chemicon Int.), to detect the binding on TrkA, or blocking antibody anti-TrkA (1:200; AbCam) to detect the binding on p75. […] All the results are expressed as mean channel fluorescence (MCF), which is a measure of the cell surface fluorescence produced by G79-FITC binding.

TrkA = biological target: T2, TrkA (Rattus norvegicus, UniProt P35739); assay: Cytometry binding assay in PC12 with antibody anti-p75; settings: pre-incubation with the antibody anti-p75; growing NGF
T2 construct: PC12 cells expressing both TrkA and p75 receptors were cultivated in normal growth medium; endogenous in cells; host or cells: PC12
T2 sequence (P35739 33-799): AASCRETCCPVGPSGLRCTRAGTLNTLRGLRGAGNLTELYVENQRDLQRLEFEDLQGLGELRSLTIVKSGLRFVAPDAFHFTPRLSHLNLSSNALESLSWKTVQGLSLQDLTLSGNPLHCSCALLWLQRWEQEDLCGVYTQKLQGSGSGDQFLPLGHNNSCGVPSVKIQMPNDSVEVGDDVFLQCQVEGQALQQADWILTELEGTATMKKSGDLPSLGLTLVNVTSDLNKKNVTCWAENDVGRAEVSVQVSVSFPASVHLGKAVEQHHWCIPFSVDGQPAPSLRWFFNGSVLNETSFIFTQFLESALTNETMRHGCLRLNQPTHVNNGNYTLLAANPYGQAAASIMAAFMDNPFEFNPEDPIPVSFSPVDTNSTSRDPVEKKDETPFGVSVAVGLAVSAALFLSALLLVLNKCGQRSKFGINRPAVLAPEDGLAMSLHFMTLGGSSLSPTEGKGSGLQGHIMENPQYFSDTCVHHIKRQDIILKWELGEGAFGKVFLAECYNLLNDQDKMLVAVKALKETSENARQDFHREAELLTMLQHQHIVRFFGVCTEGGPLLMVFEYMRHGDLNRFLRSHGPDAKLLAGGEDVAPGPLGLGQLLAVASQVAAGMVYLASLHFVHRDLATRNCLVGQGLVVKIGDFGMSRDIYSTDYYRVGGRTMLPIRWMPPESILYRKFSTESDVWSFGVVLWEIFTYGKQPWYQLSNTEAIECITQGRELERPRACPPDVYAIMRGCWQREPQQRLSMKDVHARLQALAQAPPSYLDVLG
Method: as §1, §2

[4] = plus LY294002 (10 μM), inhibitor of PI3K
[5] = plus PD98059 (50 μM), inhibitor of MAPK kinase
[6] = 100 ng/ml together with antibody anti-NGF (1 μg/ml)

`CC(C)CN(CC(=O)N(CCCN1CCCC1=O)CC(N)=O)C(=O)CNCCc1ccccc1F` [Compound G79, [N-(2-(2′-Fluorophenyl)ethyl)glycyl]-[N-(2-methylpropyl)glycyl]-N-[3-(2′-oxopyrrolidinyl)propyl]glycinamide] was tested, and the “number of differentiated cells” value (PC12 cells [1]; [4]) was 5.28±2.54, the “number of differentiated cells” value (PC12 cells [1]; [5]) was 3.1±1.06 and the “number of differentiated cells” value (PC12 cells [1]; treatment alone) was 11.5±2.8. For the same compound, the “number of differentiated cells” value (PC12 cells [2]) was 11.3±2.6, the “number of differentiated cells for each field” value (PC12 cells [3]; [6]) was 18.8±4.9 and the “number of differentiated cells for each field” value (PC12 cells [3]; 100 ng/ml, treatment alone) was 11.5±2.8. The “binding on p75 (MCF of G79-FITC)” value (p75 receptor) was “could bind on p75 receptor” and the “binding on TrkA (MCF of G79-FITC)” value (TrkA) was “apparently does not compete with NGF for the binding on TrkA”.
With `CC(C)CN(CC(=O)N(CCc1ccc(S(N)(=O)=O)cc1)CC(N)=O)C(=O)CNCCc1ccccc1F` [Compound G80, [N-(2-(2′-Fluorophenyl)ethyl)glycyl]-[N-(2-methylpropyl)glycyl]-N-[2-(4′-sulfamoylphenyl)ethyl]glycinamide] the “number of differentiated cells” value (PC12 cells [1]; [4]) was 8.5±2.6, the “number of differentiated cells” value (PC12 cells [1]; [5]) was 4±2.3 and the “number of differentiated cells” value (PC12 cells [1]; treatment alone) was 15.1±6.3. For the same compound, the “number of differentiated cells” value (PC12 cells [2]) was 13±5.9, the “number of differentiated cells for each field” value (PC12 cells [3]; [6]) was 14.1±1.8 and the “number of differentiated cells for each field” value (PC12 cells [3]; 100 ng/ml, treatment alone) was 15.1±6.3.
In the case of `CC(C)CN(CC(=O)N(CCc1ccc(S(N)(=O)=O)cc1)CC(N)=O)C(=O)CNCCN1CCCC1` [Compound G81, [N-(2-(1-Pyrrolidinyl)ethyl)glycyl]-[N-(2-methylpropyl)glycyl]-N-[2-(4′-sulfamoylphenyl)ethyl]glycinamide], the “number of differentiated cells” value (PC12 cells [1]; [4]) is reported as 6.6±4.02, the “number of differentiated cells” value (PC12 cells [1]; [5]) is reported as 1.6±1.1 and the “number of differentiated cells” value (PC12 cells [1]; treatment alone) is reported as 14.1±3.3. For the same compound, the “number of differentiated cells” value (PC12 cells [2]) was 13.3±3.8, the “number of differentiated cells for each field” value (PC12 cells [3]; [6]) was 15.5±4.1 and the “number of differentiated cells for each field” value (PC12 cells [3]; 100 ng/ml, treatment alone) was 14.1±3.3.
